Measurements reported in PMC6395531 (Journal of medicinal chemistry, 2019).

Columns and labels:
[1] = system: Salmonella typhimurium (TA98, TA100, TA1535, TA1537) and Escherichia coli (WP2 uvrA); test: Bacterial reverse mutation assay; conditions: presence and absence of S9; monotartaric salts; 1.5 to 5000 μg/plate
[2] = Pharmacokinetics of 29 in rats; conditions: male, Sprague-Dawley, rat, in vivo
[3] = Caco-2 bidirectional permeability; type: in vitro ADME; conditions: Table 3

| SMILES | mutagenicity in the TA1537 strain (Ames assay) [1] | AUC(0-inf) ([2]; iv, 1 mg/kg) | AUC(0-inf) ([2]; po, 2 mg/kg) | Caco-2 cells A-B [3] |
| --- | --- | --- | --- | --- |
| CCc1ccc2nc(N3CCC(N[C@@H]4CCCOC4)CC3)c(-c3nc(C)no3)cc2c1 [Compound 36, (R)-1-(6-ethyl-3-(3-methyl-1,2,4-oxadiazol-5-yl)quinolin-2-yl)-N-(tetrahydro-2H-pyran-3-yl)piperidin-4-amine] | showed a mutagenic response in the TA1537 strain but only in the absence of S9 |  |  |  |
| Cc1ccc2nc(N3CCC(NC4CCOCC4)CC3)c(-c3nc(C)no3)cc2c1 [Compound 29, 1-(6-methyl-3-(3-methyl-1,2,4-oxadiazol-5-yl)quinolin-2-yl)-N-(tetrahydro-2H-pyran-4-yl)piperidin-4-amine] |  | 212 ng·h/mL | 28.4 ng·h/mL | 26.2 ×10⁻⁶ cm/s |
| CCc1ccc2nc(N3CCC(N[C@@H](C)C(C)C)CC3)c(-c3nc(C)no3)cc2c1 [Compound 33, (S)-1-(6-ethyl-3-(3-methyl-1,2,4-oxadiazol-5-yl)quinolin-2-yl)-N-(3-methylbutan-2-yl)piperidin-4-amine] | showed a mutagenic response in the TA1537 strain but only in the absence of S9 |  |  |  |
| CCc1ccc2nc(N3CCC(NCC4(C)COC4)CC3)c(-c3nc(C)no3)cc2c1 [Compound 35, 1-(6-ethyl-3-(3-methyl-1,2,4-oxadiazol-5-yl)quinolin-2-yl)-N-((3-methyloxetan-3-yl)methyl)piperidin-4-amine] | exhibited mutagenicity in the TA1537 strain in the presence and absence of S9 |  |  |  |
| CCc1ccc2nc(N3CCC(N[C@H]4CCCC[C@@H]4O)CC3)c(-c3nc(C)no3)cc2c1 [Compound 34, (1S,2S)-2-((1-(6-ethyl-3-(3-methyl-1,2,4-oxadiazol-5-yl)quinolin-2-yl)piperidin-4-yl)amino)cyclohexanol] | exhibited mutagenicity in the TA1537 strain in the presence and absence of S9 |  |  |  |
